In PubChem BioAssay (NCI):
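Where inhibition never reached the appropriate level, the endpoint shown equals the highest concentration tested. Otherwise, values were interpolated linearly from a five-concentration, 48-hour dose response in 96-well plates. Abbreviation: GI50, concentration required for 50% inhibition of growth. Definition used: TGI = concentration required for complete inhibition of growth.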

Columns and labels:
Experiment in all cases: NCI-60 cell line screen, 48 h
OVCAR-4 ovarian = system: OVCAR-4 ovarian
CAKI-1 renal = system: CAKI-1 renal
HT29 colon = system: HT29 colon
OVCAR-3 ovarian = system: OVCAR-3 ovarian
MDA-MB-435 = system: MDA-MB-435
OVCAR-5 ovarian = system: OVCAR-5 ovarian
UO-31 renal = system: UO-31 renal
SR leukemia = system: SR leukemia
EKVX NSCLC = system: EKVX NSCLC
CCRF-CEM leukemia = system: CCRF-CEM leukemia
U251 CNS = system: U251 CNS
SF-268 CNS = system: SF-268 CNS
LOX IMVI melanoma = system: LOX IMVI melanoma
OVCAR-8 ovarian = system: OVCAR-8 ovarian
ACHN renal = system: ACHN renal
RXF 393 renal = system: RXF 393 renal
MDA-MB-231 breast = system: MDA-MB-231 breast
SW-620 colon = system: SW-620 colon
SNB-19 CNS = system: SNB-19 CNS
HCC-2998 colon = system: HCC-2998 colon
T-47D breast = system: T-47D breast
KM12 colon = system: KM12 colon
A549 NSCLC = system: A549 NSCLC
BT-549 breast = system: BT-549 breast
SK-MEL-2 melanoma = system: SK-MEL-2 melanoma
NCI-H23 lung = system: NCI-H23 lung
DU-145 prostate = system: DU-145 prostate
NCI-H460 lung = system: NCI-H460 lung
TK-10 renal = system: TK-10 renal
NCI-H522 lung = system: NCI-H522 lung
NCI/ADR-RES ovarian = system: NCI/ADR-RES ovarian
UACC-257 melanoma = system: UACC-257 melanoma
NCI-H226 lung = system: NCI-H226 lung
SK-MEL-28 melanoma = system: SK-MEL-28 melanoma
SK-MEL-5 melanoma = system: SK-MEL-5 melanoma
MALME-3M melanoma = system: MALME-3M melanoma
HCT-116 colon = system: HCT-116 colon
HS 578T breast = system: HS 578T breast
M14 melanoma = system: M14 melanoma
IGROV1 ovarian = system: IGROV1 ovarian
MOLT-4 leukemia = system: MOLT-4 leukemia
K-562 leukemia = system: K-562 leukemia
HCT-15 colon = system: HCT-15 colon
SNB-75 CNS = system: SNB-75 CNS
UACC-62 melanoma = system: UACC-62 melanoma
SK-OV-3 ovarian = system: SK-OV-3 ovarian
RPMI-8226 leukemia = system: RPMI-8226 leukemia
COLO 205 colon = system: COLO 205 colon
786-0 renal = system: 786-0 renal
MDA-MB-468 breast = system: MDA-MB-468 breast
SF-295 CNS = system: SF-295 CNS
A498 renal = system: A498 renal
MCF7 breast = system: MCF7 breast
SF-539 CNS = system: SF-539 CNS
HOP-62 NSCLC = system: HOP-62 NSCLC
HL-60(TB) leukemia = system: HL-60(TB) leukemia
HOP-92 NSCLC = system: HOP-92 NSCLC
PC-3 prostate = system: PC-3 prostate
SN12C renal = system: SN12C renal

COC(=O)c1c(C(=O)OC)c2n(c1C)[C@@H]([C@@H](C)[C@H]1CC[C@H]3[C@@H]4CCC5=CC(=O)CC[C@]5(C)[C@H]4CC[C@]13C)SC2
GI50 (OVCAR-4 ovarian): 3.05 µM | TGI (OVCAR-4 ovarian): > 100 µM | GI50 (CAKI-1 renal): 3.93 µM | TGI (CAKI-1 renal): > 100 µM | GI50 (HT29 colon): 3.75 µM | TGI (HT29 colon): > 100 µM | GI50 (OVCAR-3 ovarian): 5.08 µM | TGI (OVCAR-3 ovarian): > 100 µM | GI50 (MDA-MB-435): 3.25 µM | TGI (MDA-MB-435): > 100 µM | GI50 (OVCAR-5 ovarian): 4.67 µM | TGI (OVCAR-5 ovarian): > 100 µM | GI50 (UO-31 renal): 2.91 µM | TGI (UO-31 renal): > 100 µM | GI50 (SR leukemia): 3.5 µM | TGI (SR leukemia): > 100 µM | GI50 (EKVX NSCLC): 2.34 µM | TGI (EKVX NSCLC): > 100 µM | GI50 (CCRF-CEM leukemia): 3.41 µM | TGI (CCRF-CEM leukemia): > 100 µM | GI50 (U251 CNS): 4.56 µM | TGI (U251 CNS): > 100 µM | GI50 (SF-268 CNS): 6.58 µM | TGI (SF-268 CNS): > 100 µM | GI50 (LOX IMVI melanoma): 3.86 µM | TGI (LOX IMVI melanoma): > 100 µM | GI50 (OVCAR-8 ovarian): 3.32 µM | TGI (OVCAR-8 ovarian): > 100 µM | GI50 (ACHN renal): 3.36 µM | TGI (ACHN renal): > 100 µM | GI50 (RXF 393 renal): 8.82 µM | TGI (RXF 393 renal): 52.4 µM | GI50 (MDA-MB-231 breast): 9.73 µM | TGI (MDA-MB-231 breast): > 100 µM | GI50 (SW-620 colon): 7.25 µM | TGI (SW-620 colon): > 100 µM | GI50 (SNB-19 CNS): 8.15 µM | TGI (SNB-19 CNS): > 100 µM | GI50 (HCC-2998 colon): 6.47 µM | TGI (HCC-2998 colon): > 100 µM | GI50 (T-47D breast): 2.1 µM | TGI (T-47D breast): > 100 µM | GI50 (KM12 colon): 4.17 µM | TGI (KM12 colon): > 100 µM | GI50 (A549 NSCLC): 4.29 µM | TGI (A549 NSCLC): > 100 µM | GI50 (BT-549 breast): 1.8 µM | TGI (BT-549 breast): 4.99 µM | GI50 (SK-MEL-2 melanoma): 4.02 µM | TGI (SK-MEL-2 melanoma): > 100 µM | GI50 (NCI-H23 lung): 3.79 µM | TGI (NCI-H23 lung): > 100 µM | GI50 (DU-145 prostate): 9.83 µM | TGI (DU-145 prostate): > 100 µM | GI50 (NCI-H460 lung): 5.25 µM | TGI (NCI-H460 lung): > 100 µM | GI50 (TK-10 renal): 6.34 µM | TGI (TK-10 renal): > 100 µM | GI50 (NCI-H522 lung): 2.55 µM | TGI (NCI-H522 lung): 53.8 µM | GI50 (NCI/ADR-RES ovarian): 3.13 µM | TGI (NCI/ADR-RES ovarian): > 100 µM | GI50 (UACC-257 melanoma): 3.22 µM | TGI (UACC-257 melanoma): > 100 µM | GI50 (NCI-H226 lung): 2.58 µM | TGI (NCI-H226 lung): 61.8 µM | GI50 (SK-MEL-28 melanoma): 4.34 µM | TGI (SK-MEL-28 melanoma): > 100 µM | GI50 (SK-MEL-5 melanoma): 1.53 µM | TGI (SK-MEL-5 melanoma): 3.68 µM | GI50 (MALME-3M melanoma): 4.44 µM | TGI (MALME-3M melanoma): 72.9 µM | GI50 (HCT-116 colon): 3 µM | TGI (HCT-116 colon): > 100 µM | GI50 (HS 578T breast): 8.22 µM | TGI (HS 578T breast): > 100 µM | GI50 (M14 melanoma): 4.81 µM | TGI (M14 melanoma): > 100 µM | GI50 (IGROV1 ovarian): 18.7 µM | TGI (IGROV1 ovarian): > 100 µM | GI50 (MOLT-4 leukemia): 2.02 µM | TGI (MOLT-4 leukemia): 6.34 µM | GI50 (K-562 leukemia): 0.908 µM | TGI (K-562 leukemia): > 100 µM | GI50 (HCT-15 colon): 3.69 µM | TGI (HCT-15 colon): > 100 µM | GI50 (SNB-75 CNS): 11.3 µM | TGI (SNB-75 CNS): 49.7 µM | GI50 (UACC-62 melanoma): 2.21 µM | TGI (UACC-62 melanoma): > 100 µM | GI50 (SK-OV-3 ovarian): 29.3 µM | TGI (SK-OV-3 ovarian): > 100 µM | GI50 (RPMI-8226 leukemia): 1.56 µM | TGI (RPMI-8226 leukemia): > 100 µM | GI50 (COLO 205 colon): 4.94 µM | TGI (COLO 205 colon): > 100 µM | GI50 (786-0 renal): 11.3 µM | TGI (786-0 renal): > 100 µM | GI50 (MDA-MB-468 breast): 1.93 µM | TGI (MDA-MB-468 breast): 16.6 µM | GI50 (SF-295 CNS): 2.68 µM | TGI (SF-295 CNS): 27.9 µM | GI50 (A498 renal): 17.1 µM | TGI (A498 renal): > 100 µM | GI50 (MCF7 breast): 2.6 µM | TGI (MCF7 breast): > 100 µM | GI50 (SF-539 CNS): 7.07 µM | TGI (SF-539 CNS): 84.1 µM | GI50 (HOP-62 NSCLC): 24.3 µM | TGI (HOP-62 NSCLC): > 100 µM | GI50 (HL-60(TB) leukemia): 2.34 µM | TGI (HL-60(TB) leukemia): 14 µM | GI50 (HOP-92 NSCLC): 6.99 µM | TGI (HOP-92 NSCLC): 54.4 µM | GI50 (PC-3 prostate): 2.31 µM | TGI (PC-3 prostate): > 100 µM | GI50 (SN12C renal): 4.06 µM | TGI (SN12C renal): > 100 µM
